{"source": "patent US9149038B2", "about": "“4-amino-6-(heterocyclic)picolinates and 6-amino-2-(heterocyclic)pyrimidine-4-carboxylates and their use as herbicides” (Dow AgroSciences LLC, priority 2013, dated 2015)", "key": {"[1]": {"system": "Key Broadleaf Weed and Crop Species", "assay": "Post-Emergent Test II: postemergent herbicidal activity, visual rating after 14 d (Table 7)", "type": "in vivo", "conditions": "post-emergence, 336 h; for pest or weed control at 35 g/ha: 35 g ai/ha; for pest or weed control at 70 g/ha: 70 g ai/ha; for pest or weed control at 140 g/ha: 140 g ai/ha; for pest or weed control at 280 g/ha: 280 g ai/ha", "summary_of_the_method": "(§1)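 Greenhouse plants at first or second true leaf stage sprayed with compound in acetone/DMSO-based spray solution with crop oil concentrate and Triton X-155 at 187 L/ha, tested at highest rate and ½× to 1/16× dilutions; solvent blank controls. Injury rated visually 0–100% versus untreated plants after 14 d.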"}, "[2]": {"system": "Key Grass and Sedge Weeds as well as Grass Crops", "assay": "Post-Emergent Test II: postemergent herbicidal activity, visual rating after 14 d (Table 8)", "type": "in vivo", "conditions": "post-emergence, 336 h; for pest or weed control at 35 g/ha: 35 g ai/ha; for pest or weed control at 70 g/ha: 70 g ai/ha; for pest or weed control at 140 g/ha: 140 g ai/ha; for pest or weed control at 280 g/ha: 280 g ai/ha", "summary_of_the_method": "as §1"}, "[3]": {"conditions": "ABUTH: velvetleaf (Abutilon theophrasti), read-out: Visual Growth Reduction (%) 14 Days After Application ABUTH"}, "[4]": {"conditions": "AMARE: redroot pigweed (Amaranthus retroflexus), read-out: Visual Growth Reduction (%) 14 Days After Application AMARE"}, "[5]": {"conditions": "BRSNN: oilseed rape, canola (Brassica napus), read-out: Visual Growth Reduction (%) 14 Days After Application BRSNN"}, "[6]": {"conditions": "CHEAL: lambsquarters (Chenopodium album), read-out: Visual Growth Reduction (%) 14 Days After Application CHEAL"}, "[7]": {"conditions": "EPHHL: wild poinsettia (Euphorbia heterophylla), read-out: Visual Growth Reduction (%) 14 Days After Application EPHHL"}, "[8]": {"conditions": "HELAN: sunflower (Helianthus annuus), read-out: Visual Growth Reduction (%) 14 Days After Application HELAN"}, "[9]": {"conditions": "barnyardgrass (Echinochloa crus-galli), read-out: Visual Growth Reduction (%) 14 Days After Application, ECHCG"}, "[10]": {"conditions": "giant foxtail (Setaria faberi), read-out: Visual Growth Reduction (%) 14 Days After Application, SETFA"}, "[11]": {"conditions": "maize, corn (Zea mays), read-out: Visual Growth Reduction (%) 14 Days After Application, ZEAMX"}, "[12]": {"conditions": "rice (Oryza sativa), read-out: Visual Growth Reduction (%) 14 Days After Application, ORYSA"}, "[13]": {"conditions": "wheat, spring (Triticum aestivum), read-out: Visual Growth Reduction (%) 14 Days After Application, TRZAS"}, "[14]": {"conditions": "yellow nutsedge (Cyperus esculentus), read-out: Visual Growth Reduction (%) 14 Days After Application, CYPES"}}, "note": "Like-named read-outs stand apart in the source and are kept apart here.", "data": [{"smiles": "COC(=O)c1nc(-c2ccc3c(c2F)OC(F)(F)C3(F)F)cc(N)c1Cl", "note": "[Compound 106]", "values": [{"measurement": "pest or weed control at 35 g/ha", "setting": "[1]; [3]", "result": "45 to 59", "unit": "%"}, {"measurement": "pest or weed control at 70 g/ha", "setting": "[1]; [3]", "result": "75 to 84", "unit": "%"}, {"measurement": "pest or weed control at 140 g/ha", "setting": "[1]; [3]", "result": "75 to 84", "unit": "%"}, {"measurement": "pest or weed control at 280 g/ha", "setting": "[1]; [3]", "result": "85 to 94", "unit": "%"}, {"measurement": "pest or weed control at 35 g/ha", "setting": "[1]; [4]", "result": "30 to 44", "unit": "%"}, {"measurement": "pest or weed control at 70 g/ha", "setting": "[1]; [4]", "result": "30 to 44", "unit": "%"}, {"measurement": "pest or weed control at 140 g/ha", "setting": "[1]; [4]", "result": "60 to 74", "unit": "%"}, {"measurement": "pest or weed control at 280 g/ha", "setting": "[1]; [4]", "result": "75 to 84", "unit": "%"}, {"measurement": "pest or weed control at 35 g/ha", "setting": "[1]; [5]", "result": "0 to 29", "unit": "%"}, {"measurement": "pest or weed control at 70 g/ha", "setting": "[1]; [5]", "result": "0 to 29", "unit": "%"}, {"measurement": "pest or weed control at 140 g/ha", "setting": "[1]; [5]", "result": "0 to 29", "unit": "%"}, {"measurement": "pest or weed control at 280 g/ha", "setting": "[1]; [5]", "result": "0 to 29", "unit": "%"}, {"measurement": "pest or weed control at 35 g/ha", "setting": "[1]; [6]", "result": "0 to 29", "unit": "%"}, {"measurement": "pest or weed control at 70 g/ha", "setting": "[1]; [6]", "result": "0 to 29", "unit": "%"}, {"measurement": "pest or weed control at 140 g/ha", "setting": "[1]; [6]", "result": "45 to 59", "unit": "%"}, {"measurement": "pest or weed control at 280 g/ha", "setting": "[1]; [6]", "result": "75 to 84", "unit": "%"}, {"measurement": "pest or weed control at 35 g/ha", "setting": "[1]; [7]", "result": "45 to 59", "unit": "%"}, {"measurement": "pest or weed control at 70 g/ha", "setting": "[1]; [7]", "result": "60 to 74", "unit": "%"}, {"measurement": "pest or weed control at 140 g/ha", "setting": "[1]; [7]", "result": "75 to 84", "unit": "%"}, {"measurement": "pest or weed control at 280 g/ha", "setting": "[1]; [7]", "result": "75 to 84", "unit": "%"}, {"measurement": "pest or weed control at 35 g/ha", "setting": "[1]; [8]", "result": "0 to 29", "unit": "%"}, {"measurement": "pest or weed control at 70 g/ha", "setting": "[1]; [8]", "result": "0 to 29", "unit": "%"}, {"measurement": "pest or weed control at 140 g/ha", "setting": "[1]; [8]", "result": "0 to 29", "unit": "%"}, {"measurement": "pest or weed control at 280 g/ha", "setting": "[1]; [8]", "result": "30 to 44", "unit": "%"}, {"measurement": "pest or weed control at 35 g/ha", "setting": "[2]; [9]", "result": "0 to 29", "unit": "%"}, {"measurement": "pest or weed control at 70 g/ha", "setting": "[2]; [9]", "result": "0 to 29", "unit": "%"}, {"measurement": "pest or weed control at 140 g/ha", "setting": "[2]; [9]", "result": "0 to 29", "unit": "%"}, {"measurement": "pest or weed control at 280 g/ha", "setting": "[2]; [9]", "result": "0 to 29", "unit": "%"}, {"measurement": "pest or weed control at 35 g/ha", "setting": "[2]; [10]", "result": "0 to 29", "unit": "%"}, {"measurement": "pest or weed control at 70 g/ha", "setting": "[2]; [10]", "result": "0 to 29", "unit": "%"}, {"measurement": "pest or weed control at 140 g/ha", "setting": "[2]; [10]", "result": "0 to 29", "unit": "%"}, {"measurement": "pest or weed control at 280 g/ha", "setting": "[2]; [10]", "result": "0 to 29", "unit": "%"}, {"measurement": "pest or weed control at 35 g/ha", "setting": "[2]; [11]", "result": "0 to 29", "unit": "%"}, {"measurement": "pest or weed control at 70 g/ha", "setting": "[2]; [11]", "result": "0 to 29", "unit": "%"}, {"measurement": "pest or weed control at 140 g/ha", "setting": "[2]; [11]", "result": "0 to 29", "unit": "%"}, {"measurement": "pest or weed control at 280 g/ha", "setting": "[2]; [11]", "result": "0 to 29", "unit": "%"}, {"measurement": "pest or weed control at 35 g/ha", "setting": "[2]; [12]", "result": "0 to 29", "unit": "%"}, {"measurement": "pest or weed control at 70 g/ha", "setting": "[2]; [12]", "result": "0 to 29", "unit": "%"}, {"measurement": "pest or weed control at 140 g/ha", "setting": "[2]; [12]", "result": "0 to 29", "unit": "%"}, {"measurement": "pest or weed control at 280 g/ha", "setting": "[2]; [12]", "result": "0 to 29", "unit": "%"}, {"measurement": "pest or weed control at 35 g/ha", "setting": "[2]; [13]", "result": "0 to 29", "unit": "%"}, {"measurement": "pest or weed control at 70 g/ha", "setting": "[2]; [13]", "result": "0 to 29", "unit": "%"}, {"measurement": "pest or weed control at 140 g/ha", "setting": "[2]; [13]", "result": "0 to 29", "unit": "%"}, {"measurement": "pest or weed control at 280 g/ha", "setting": "[2]; [13]", "result": "0 to 29", "unit": "%"}, {"measurement": "pest or weed control at 35 g/ha", "setting": "[2]; [14]", "result": "0 to 29", "unit": "%"}, {"measurement": "pest or weed control at 70 g/ha", "setting": "[2]; [14]", "result": "0 to 29", "unit": "%"}, {"measurement": "pest or weed control at 140 g/ha", "setting": "[2]; [14]", "result": "0 to 29", "unit": "%"}, {"measurement": "pest or weed control at 280 g/ha", "setting": "[2]; [14]", "result": "0 to 29", "unit": "%"}]}]}
